In data set [1] the test system is mitochondrial membrane potential in U87 and U87-TxR cells. In words: TMRE mitochondrial membrane potential. The following applies: 4 µM, 24 h, both cell lines. The format is cell-based, human. The procedure: The cell-permeable fluorescent dye TMRE was used to evaluate mitochondrial membrane potential. TMRE selectively accumulates in active mitochondria with intact membrane potential. […] U87 and U87-TxR cells were seeded in 6-well plates at a density of 150,000 cells per well. After 24 h, cells were treated with 2 and 5 (4 µM) and incubated for an additional 24 h. After treatment, cells were trypsinized, resuspended in complete medium containing 500 nM TMRE, and incubated for 30 min at 37 °C in the dark. CCCP (10 µM) was used as a positive control for mitochondrial depolarization and added 30 min before staining. For each sample, at least 10,000 events were collected. TMRE was detected at […]. The results were calculated using CytExpert 2.4.0.28 software (Beckman Coulter, Indianapolis, IN, USA).

The next data set has as its system A-172 cells. In words: MTT cell viability assay, A-172. The format is cell-based. The following applies: Homo sapiens, 72 h treatment. The procedure:
(§1) Cell viability was measured using the colorimetric MTT assay based on the reduction of MTT into formazan dye. Cell lines were seeded into 96-well cell culture plates (4000 cells/well) in appropriate medium. After overnight incubation, cells were treated with increasing concentrations of 1, 2, 3, 4, 5, and 6 (0.5, 1, 2, 4, and 8 µM). After 72 h treatment, MTT solution (4 mg/mL) was added and plates were incubated at 37 °C with 5% CO2 for 3 h. After incubation, formazan crystals were dissolved using 100 µL DMSO, resulting in a purple color. The absorbance was measured at 570 nm with a reference wavelength of 690 nm using an automated microplate reader (MultiskanSky, Thermo Scientific, USA). The IC50 values were determined by non-linear regression analysis in GraphPad Prism 8.0.2. software (GraphPad Software, Boston, MA, USA).
On the technique in general: Tetrazolium assays rely on reduction of a dye to a coloured formazan, in cell work by metabolically active cells.

In the next data set the target is T1, P-gp (U87-TxR cells) (Homo sapiens, UniProt P08183).
T1 construct: Studies were carried out with 2, 5, and TQ in U87-TxR cells with P-gp overexpression; endogenous in cells; host or cells: U87-TxR (paclitaxel-selected from U87)
T1 sequence (P08183 whole entry): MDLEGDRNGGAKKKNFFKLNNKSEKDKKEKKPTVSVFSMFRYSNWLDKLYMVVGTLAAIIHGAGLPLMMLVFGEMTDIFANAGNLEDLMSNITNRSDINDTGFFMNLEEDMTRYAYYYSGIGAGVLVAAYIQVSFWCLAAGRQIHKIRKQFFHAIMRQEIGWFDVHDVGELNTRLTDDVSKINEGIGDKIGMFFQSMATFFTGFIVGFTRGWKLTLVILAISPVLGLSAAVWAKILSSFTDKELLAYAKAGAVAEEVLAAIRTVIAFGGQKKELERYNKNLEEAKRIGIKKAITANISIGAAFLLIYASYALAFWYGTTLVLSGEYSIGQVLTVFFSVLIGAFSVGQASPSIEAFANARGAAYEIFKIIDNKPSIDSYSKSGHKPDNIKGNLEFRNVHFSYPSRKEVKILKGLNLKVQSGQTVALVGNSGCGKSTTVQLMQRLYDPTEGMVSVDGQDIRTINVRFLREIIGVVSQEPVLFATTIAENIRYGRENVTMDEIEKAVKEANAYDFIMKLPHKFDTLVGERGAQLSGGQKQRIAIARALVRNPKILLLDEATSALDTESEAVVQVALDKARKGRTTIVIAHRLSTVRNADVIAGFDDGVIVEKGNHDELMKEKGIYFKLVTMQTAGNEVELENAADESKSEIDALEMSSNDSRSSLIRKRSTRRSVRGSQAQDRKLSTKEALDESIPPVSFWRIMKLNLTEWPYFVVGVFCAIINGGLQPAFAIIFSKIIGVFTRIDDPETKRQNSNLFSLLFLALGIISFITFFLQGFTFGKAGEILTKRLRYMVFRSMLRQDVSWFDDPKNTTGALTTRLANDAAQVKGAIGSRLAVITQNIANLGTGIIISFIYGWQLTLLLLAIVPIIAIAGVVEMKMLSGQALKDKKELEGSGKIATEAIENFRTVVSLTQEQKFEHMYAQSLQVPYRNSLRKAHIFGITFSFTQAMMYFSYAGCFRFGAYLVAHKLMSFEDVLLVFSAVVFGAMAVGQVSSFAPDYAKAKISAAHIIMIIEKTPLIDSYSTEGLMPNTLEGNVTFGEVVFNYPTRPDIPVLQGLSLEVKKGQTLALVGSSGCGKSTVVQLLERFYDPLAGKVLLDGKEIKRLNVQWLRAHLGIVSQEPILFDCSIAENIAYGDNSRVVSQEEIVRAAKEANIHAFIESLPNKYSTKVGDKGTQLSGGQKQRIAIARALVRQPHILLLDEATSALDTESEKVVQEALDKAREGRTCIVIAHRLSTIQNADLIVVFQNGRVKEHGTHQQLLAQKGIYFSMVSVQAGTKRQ
In words: Rhodamine 123 accumulation assay. It counts as cell-based. The following applies: highest concentration, 30 min. The procedure:
Studies were carried out with 2, 5, and TQ in U87-TxR cells with P-gp overexpression. Sensitive U87 cells were used as a positive control for Rho 123 accumulation. U87-TxR cells were seeded in 6-well plates at a density of 100,000 cells/well and incubated overnight. Then, the cells were treated with 1 μM and 2 μM of compounds 2 and 5 for 24 h, 48 h, and 72 h. Thereafter, cells were incubated with 2 μM Rho 123 for an additional 30 min at 37 °C in 5% CO2. In another experimental setting, 2 μM Rho123 was simultaneously applied with increasing concentrations of 2 or 5 (1 μM, 2 μM, and 4 μM) for 30 min. At the end of the accumulation period, the samples were washed twice, resuspended in 1 mL of cold PBS, and analyzed using a CytoFLEX flow cytometer (Beckman Coulter, Indianapolis, IN, USA). The fluorescence was read in a green fluorescence channel (525 nm). At least 10, 000 events were assayed for each sample. Data were analyzed using CytExpert 2.4.0.28 software (Beckman Coulter, Indianapolis, IN, USA).

For the next data set, the system named is P-gp. On the set-up: method as in PMID 40939538. The following applies: non-small cell lung carcinoma sensitive and MDR P-gp-overexpressing cells ref 23; cited from earlier work.
The test system of the next data set is U87-TxR cells. In words: MTT cell viability assay, U87-TxR. The format is cell-based, human. The following applies: Homo sapiens, U87-TxR; 72 h treatment, MTT, MDR cell line. The protocol: as §1
Data set [2] has as its system ASK1 protein in U87-TxR cells. Description: ASK1 protein expression by flow cytometry, U87-TxR. The format is cell-based, human. The following applies: 48 h; for ASK1 protein levels: 2 µM and 4 µM. The procedure:
(§2) Flow cytometry was used to assess TrxR1 and ASK1 protein expression in the U87 and U87-TxR cell lines. Cells were seeded and allowed to attach overnight before exposure to compounds 2 and 5 at final concentrations of 2 μM and 4 μM. After 48 h treatment, cells were collected by trypsinization, rinsed with PBS, and subsequently fixed in 4% PFA for 10 min at room temperature. For permeabilization, ice-cold absolute methanol was added, and the samples were maintained at −20 °C overnight. Following this step, cells were washed in PBS and incubated for 1 h in 0.5% BSA/PBS to block nonspecific binding. Pelleted cells were then resuspended in primary antibodies diluted in 0.5% BSA/PBS [(ASK1, 1:200 (ab45178, Abcam, Cambridge, UK); TrxR1, 1:500 (ab124954, Abcam, Cambridge, UK)] and incubated overnight at +4 °C. Cells were then washed in PBS and incubated for 1 h at room temperature in the dark with fluorescently labeled anti-rabbit IgG secondary antibody (Alexa Fluor 488, ab150097, Abcam, Cambridge, UK), diluted 1:1000 in 0.5% BSA/PBS. Following incubation, samples were washed, resuspended in cold PBS, and analyzed by flow cytometry. A minimum of 10,000 events per sample were acquired, and fluorescence was detected in a green fluorescence channel (525 nm). Data acquisition and processing were performed using CytExpert software (version 2.4.0.28; Beckman Coulter, Indianapolis, IN, USA).
(In general: Flow cytometry measures light scatter and fluorescence of single cells or particles in a stream.)

Data set [3] deals with ASK1 protein in U87 cells. Description: ASK1 protein expression by flow cytometry, U87. The format is cell-based, human. The following applies: U87, 2 µM and 4 µM, 48 h. The protocol:
as §2

`CC1(C)CCC[C@]2(C)[C@@H](CC[C@@](C)(O)/C=C/c3ccc(CNCCCCCCCCNCC45CC6CC(CC(C6)C4)C5)s3)[C@](C)(O)CC[C@@H]12` [Compound 2]: the “TMRE fluorescence (mitochondrial membrane potential)” value in data set [1] was “decreased”. The concentration for half-maximal inhibition (IC50) (usually the midpoint of a concentration-inhibition curve) came out at 2.05 ± 0.37 µM with A-172 cells and 1.96 ± 0.049 µM with U87-TxR cells. Also, on P-gp (U87-TxR cells), the “Rho 123 accumulation vs TQ (50 nM)” value is “comparable to TQ”. Moreover, in the data set with P-gp, the P-gp interaction result was “P-gp inhibitor”. For the same molecule, in data set [2], the ASK1 protein levels result is “increased”. Further, the ASK1 level result in data set [3] is “remained unchanged”.
In the case of `CC1(C)CCC[C@]2(C)[C@@H](CC[C@@](C)(O)/C=C/c3ccc(CNCCCCCCCCNCC45CC6CC(CC(C6)C4)C5)o3)[C@](C)(O)CC[C@@H]12` [Compound 5], in data set [1], the “TMRE fluorescence (mitochondrial membrane potential)” value is listed as “decreased”. The IC50 with A-172 cells is 4.74 ± 0.129 µM; in the data set on U87-TxR cells it was 3.78 ± 0.118 µM. Further, on P-gp (U87-TxR cells), the “Rho 123 accumulation vs TQ (50 nM)” value is reported as “comparable to TQ”. Further, the P-gp interaction entry with P-gp is “P-gp substrate”. Further, in data set [2], the ASK1 protein levels result is listed as “increased”. For the same molecule, in data set [2] (4 µM, not statistically significant), the ASK1 expression entry is “slightly increased”. Also, the ASK1 level result in data set [3] is listed as “remained unchanged”.

Values taken from PMC12735718, “Novel Adamantane–Sclareol Hybrids Exploit ROS Vulnerability to Overcome Multidrug-Resistance in Glioblastoma Cells” (Molecules, 2025).
